Experimental data published in US6841684B2, “Imidiazoles having reduced side effects” (Allergan, Inc., priority 1997, dated 2005).

The compounds below were run against T1, rat α2B (RNG gene) receptor (Rattus norvegicus, UniProt P19328) (assay: RSAT (Receptor Selection and Amplification Technology) assay, alpha 2B). Conditions: ratio of maximal effect to that of standard full agonist oxymetazoline.
T1 construct: expressed in transfected cells; host or cells: NIH-3T3 cells, calcium phosphate cotransfection
T1 sequence (P19328 1-453): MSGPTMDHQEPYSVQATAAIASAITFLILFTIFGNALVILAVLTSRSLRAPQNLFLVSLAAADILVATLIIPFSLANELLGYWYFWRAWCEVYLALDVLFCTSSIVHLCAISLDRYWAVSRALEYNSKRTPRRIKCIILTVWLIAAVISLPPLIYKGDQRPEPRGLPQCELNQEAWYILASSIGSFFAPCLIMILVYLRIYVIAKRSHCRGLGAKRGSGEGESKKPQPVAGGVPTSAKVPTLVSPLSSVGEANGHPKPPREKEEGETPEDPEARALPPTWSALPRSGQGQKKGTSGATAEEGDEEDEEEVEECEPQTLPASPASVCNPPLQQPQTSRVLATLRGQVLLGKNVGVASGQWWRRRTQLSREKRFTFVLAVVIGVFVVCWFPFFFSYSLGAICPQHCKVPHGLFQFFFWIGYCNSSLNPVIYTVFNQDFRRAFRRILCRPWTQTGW
Assay type: cell-based
Source text: This preferential activity can be determined in a variety of functional assays such as Cyclic AMP Production, Shimizu et al, J. Neurochem. […] In the study below, the RSAT assay on cells that have been transiently transfected with the human α2A (c10 gene), rat α2B (RNG gene) and human α2C (c4 gene) receptors was used.
The assay measures a receptor-mediated loss of contact inhibition that results in selective proliferation of receptor-containing cells in a mixed population of confluent cells. The increase in cell number is assessed with an appropriate transfected marker gene such as b-galactosidase, the activity of which can be easily measured in a 96-well format. Receptors that activate the G protein, Gq, elicit this response. Alpha2 receptors, which normally couple to Gi, activate the RSAT response when coexpressed with a hybrid Gq protein that has a Gi receptor recognition domain, called Gq/i5^2.
NIH-3T3 cells are plated at a density of 2×10^6 cells in 15 cm dishes and maintained in Dulbecco's modified Eagle's medium supplemented with 10% calf serum. One day later, cells are cotransfected by calcium phosphate precipitation with mammalian expression plasmids encoding p-SV-b-galactosidase (5-10 mg), receptor (1-2 mg) and G protein (1-2 mg). 40 mg salmon sperm DNA may also be included in the transfection mixture. Fresh media is added on the following day and 1-2 days later, cells are harvested and frozen in 50 assay aliquots. Cells are thawed and 100 ml added to […] aliquots of various concentrations of drugs in triplicate in 96-well dishes. Incubations continue 72-96 hr at 37°. After washing with phosphate-buffered saline, b-galactosidase enzyme activity is determined by adding 200 ml of the chromogenic substrate (consisting of 3.5 mM o-nitrophenyl-b-D-galactopyranoside and 0.5% nonidet P-40 in phosphate buffered saline), incubating overnight at 30° and measuring optical density at 420 nm. The absorbence is a measure of enzyme activity, which depends on cell number and reflects a receptor-mediated cell proliferation. The EC50 and maximal effect of each drug at each alpha2 receptor is determined. The efficacy or intrinsic activity is calculated as a ratio of the maximal effect of the drug to the maximal effect of a standard full agonist for each receptor subtype.

Point of comparison: `CC1=CCCCC1Cc1c[nH]cn1` (stereo not drawn) [Example 1M], “Intrinsic Activity Relative to Oxymetazoline, Alpha 2B” value 0.6. Against it:
- C=CC1=CCC(Cc2c[nH]cn2)CC1 (stereo not drawn) [Example 1-A] — higher, 0.7
- c1ccc2c(c1)SCCC2Cc1cnc[nH]1 (stereo not drawn) [Example 1-B] — higher, 0.7
- c1ccc2c(c1)OCCC2Cc1cnc[nH]1 (stereo not drawn) [Example 1C] — higher, 0.8
- CCC1=C(C)CCC(Cc2c[nH]cn2)C1 (stereo not drawn) [Example 1D] — the same, 0.6
- COCC1=CCCC(Cc2c[nH]cn2)C1 (stereo not drawn) [Example 1E] — higher, 1
- C1=C(Cc2c[nH]cn2)CSc2ccccc21 [Example 1F] — higher, 0.8
- CC1=C(Cc2c[nH]cn2)COc2ccccc21 [Example 1G] — the same, 0.6
- c1ccc2c(c1)CCCC2Cc1c[nH]cn1 (stereo not drawn) [Example 1H] — the same, 0.6
- CC1=CCCCC1Cc1cnc[nH]1 (stereo not drawn) [Example 1I] — higher, 0.8
- C1=C(Cc2c[nH]cn2)COc2ccccc21 [Example 1J] — lower, 0.5
- C#CC1=CCC(Cc2c[nH]cn2)CC1 (stereo not drawn) [Example 1K] — the same, 0.6
- C1=C(C2CC2)CCCC1Cc1c[nH]cn1 (stereo not drawn) [Example 1L] — higher, 0.7
- CCC1=CCCCC1Cc1c[nH]cn1 (stereo not drawn) [Example 1N] — higher, 0.7
- C#CC1=CC(Cc2c[nH]cn2)CCC1 (stereo not drawn) [Example 1O] — higher, 0.8
- CCC1=CC(Cc2c[nH]cn2)CCC1 (stereo not drawn) [Example 1P] — higher, 0.7
- CCC1=CC(Cc2c[nH]cn2)CC1 (stereo not drawn) [Example 1Q] — higher, 0.75
- COc1ccc2c(c1)CC(Cc1c[nH]cn1)CC2.Cl (stereo not drawn) [Example B-1, 4(5)-(7-methoxy-1,2,3,4-tetrahydronaphthalen-2-ylmethyl)-1H-imidazole, hydrogen chloride salt] — lower, 0.45
- COc1ccc2c(c1)C(=O)C(Cc1c[nH]cn1)CC2 (stereo not drawn) [Example B-1a, 2-(1H-imidazol-4(5)-ylmethyl)-7-methoxy-3,4-dihydro-2H-naphthalen-1-one] — the same, 0.6
- O=C1/C(=C/c2c[nH]cn2)COc2ccccc21 [Example B-2a, 3-(1H-imidazol-4(5)-ylmethylene)chroman-4-one] — higher, 0.63
- OC1c2ccccc2OCC1Cc1c[nH]cn1 (stereo not drawn) [Example B-2c, 3-(1H-imidazol-4(5)-ylmethyl)chroman-4-ol] — higher, 0.65
- O=C1c2ccccc2CCC1Cc1c[nH]cn1 (stereo not drawn) [Example B-3a] — higher, 0.8
- CC1CC(Cc2c[nH]cn2)Cc2ccccc21 (stereo not drawn) [Example B-4a, 4(5)-(4-methyl-1,2,3,4-tetrahydronaphthalen-2-ylmethyl)-1H-imidazole] — higher, 0.75
- CC1CC(Cc2c[nH]cn2)C(=O)c2ccccc21 (stereo not drawn) [Example B-4b, 2-(1H-imidazol-4(5)-ylmethyl)-4-methyl-3,4-dihydro-2H-naphthalen-1-one] — higher, 0.7
- O=C1/C(=C/c2c[nH]cn2)CSc2ccccc21 [Example B-5a, 3-(1H-imidazol-4(5)-ylmethylene)thiochroman-4-one] — lower, 0.5
- O=C1c2ccccc2SCC1Cc1c[nH]cn1 (stereo not drawn) [Example B-5b, 3-(1H-imidazol-4(5)-ylmethyl)thiochroman-4-one] — lower, 0.5
- O=C1/C(=C/c2c[nH]cn2)Cc2ccccc21 [Example B-7a, 2-(1-H-imidazol-4(5)-ylmethylene)indan-1-one] — lower, 0.3
- O=C1c2ccccc2CC1Cc1c[nH]cn1 (stereo not drawn) [Example B-7b, 2-(1H-imidazol-4(5)-ylmethyl)indan-1-one] — lower, 0.3
- c1ccc2c(c1)CC(Cc1c[nH]cn1)C2 [Example B-7c, 4(5)-indan-2-ylmethyl-1H-imidazole] — higher, 0.9
- Cc1ccc2c(c1)C(=O)C(Cc1c[nH]cn1)CC2 (stereo not drawn) [Example B-8a, 2-(1-H-imidazol-4(5)-ylmethyl)-7-methyl-3,4-dihydro-2H-naphthalen-1-one] — lower, 0.4
- Cc1ccc2c(c1)CC(Cc1c[nH]cn1)CC2.Cl (stereo not drawn) [Example B-8b, 4(5)-(7-methyl-1,2,3,4-tetrahydronaphthalen-2-ylmethyl)-1H-imidazole, hydrogen chloride salt] — the same, 0.6
- Cl.c1nc(CC2CCC3SCCC3C2)c[nH]1 (stereo not drawn) [Example B-9c, 5-(octahydrobenzo[b]thiophen-5-ylmethyl)-1H-imidazole, hydrochloride] — lower, 0.3
- CC1(C)CC(Cc2c[nH]cn2)Cc2ccccc21 (stereo not drawn) [Example B-10, 4(5)-(4,4-dimethyl-1,2,3,4-tetrahydronaphthalen-2-ylmethyl)-1H-imidazole] — lower, 0.3
- c1ccc2c(c1)CCCC(Cc1c[nH]cn1)C2 (stereo not drawn) [Example B-11a, 4(5)-(6,7,8,9-tetrahydro-5H-benzocyclohepten-6-ylmethyl)-1H-imidazole] — higher, 0.9
- O=C1/C(=C/c2c[nH]cn2)CCCc2ccccc21 [Example B-11b, 6-(1H-imidazol-4(5)-ylmethylene)-6,7,8,9-tetrahydrobenzocyclohepten-5-one] — lower, 0.3
- c1nc(Cc2ccoc2)c[nH]1 [Example C-6, 4(5)-furan-3-ylmethyl-1H-imidazole] — higher, 0.67
- c1ccc2oc(Cc3c[nH]cn3)cc2c1 [Example C-10, 4(5)-benzofuran-2-ylmethyl-1H-imidazole] — lower, 0.48
- CCc1ccc(Cc2c[nH]cn2)o1 [Example C-11, 4(5)-(5-ethylfuran-2-ylmethyl)-1H-imidazole] — lower, 0.5
- Brc1csc(Cc2c[nH]cn2)c1 [Example C-12, 4(5)-(4-bromothiophen-2-ylmethyl)-1H-imidazole] — higher, 1.3
- c1ccc(-c2csc(Cc3c[nH]cn3)c2)cc1 [Example C-13, 4(5)-(4-phenylthiophen-2-ylmethyl)-1H-imidazole] — lower, 0.5
- Cc1csc(Cc2c[nH]cn2)c1.Cl [Example C-14, 4(5)-(4-methylthiophen-2-ylmethyl)-1H-imidazole, hydrochloride salt] — higher, 0.7
- Cc1ccccc1C1C2CCC(C2)C1/N=C1/NCCO1 [Example D-2, oxazolidin-2-ylidene-(3-o-tolylbicyclo[2.2.1]hept-2-yl) amine] — higher, 0.75
- C1CO/C(=N\C2CC3CCC2C3)N1 [Example D-3, bicyclo[2.2.1]hept-2-yl oxazolidin-2-ylidene amine] — lower, 0.4
- c1nc(Cc2cc3c(s2)CCCC3)c[nH]1 [Example K-1, 4(5)-(4,5,6,7-tetrahydrobenzo[b]thiophen-2-ylmethyl)-1H-imidazole] — lower, 0.53
- CC(C)(C)c1ccc(Cc2c[nH]cn2)o1 [Example K-2, 4(5)-(5-tert-butylfuran-2-ylmethyl)-1H-imidazole] — higher, 0.7
